Reference: patent US5230998A, “Method for the prescreening of drugs targeted to the V3 hypervariable loop of the HIV-1 envelope glycoprotein gp 120” (priority 1991, dated 1993)

Columns and labels:
[1] = target: recombinant gp120 and recombinant CD4 (UniProt P01730+P03375); test: Inhibition of the reaction between recombinant gp120 and recombinant CD4; type: binding; conditions: complete inhibition only at high concentrations; read-out: concentration for complete inhibition of the gp120-CD4 reaction
Protocol: However, ATA is an inefficient inhibitor of the reaction between recombinant gp120 and recombinant CD4, and complete inhibition of this reaction can be observed only at high concentrations of ATA (≈1 mg/ml).

[2] = target: gp120 of the same virus subtype expressed in E. coli (HIV-1 M:B_ARV2/SF2, UniProt P03378); test: Interaction of ATA with gp120 (non-glycosylated); type: binding, HIV-1 SF2; conditions: data not shown
[3] = target: T1, HIV-1 IIIB glycoprotein gp120 V3 hypervariable loop (Human immunodeficiency virus type 1 BH10, UniProt P03375); test: Inhibition of the reaction between HIV-1 IIIB gp120 and three distinct antibodies reacting with the V3 hypervariable loop (FIGS. 8-11); type: binding; conditions: 60 μg/ml, metal complexes versus uncomplexed
T1 construct: b180 also mentions the V3 loop peptide
Protocol: (§1) FIG. 8 is a bar graph depicting the inhibitory effect of chlorine6 (60 μg/ml) and metal chelates thereof on the reaction between HIV-1 IIIB glycoprotein gp120 and three distinct antibodies reacting with the V3 hypervariable loop of this glycoprotein. The antisera used were rabbit antiserum to a synthetic peptide corresponding to the V3 hypervariable loop of HIV-1 clone BH10, serum of a chimpanzee immunized with V3 hypervariable loop peptides of distinct HIV-1 isolates and monoclonal antibodies (McAb NEA 9305) raised against residues (315-329) of the V3 hypervariable loop of HIV-1 BH10 (Neurath et al (1990), Molec. Immunol., 27, 539-549).
FIG. 9 is a bar graph depicting the inhibitory effect of deuteroporphyrin IX,2-vinyl,4-hydroxymethyl (60 μg/ml) and metal chelates thereof on the reaction between HIV-1 IIIB glycoprotein gp120 and three distinct antibodies reacting with the V3 hypervarible loop of this glycoprotein. The antisera used were rabbit antiserum to a synthetic peptide corresponding to the V3 hypervariable loop of HIV-1 clone BH10, serum of a chimpanzee immunized with V3 hypervariable loop peptides of distinct HIV-1 isolates and monoclonal antibodies (McAb NEA 9305) raised against a synthetic peptide corresponding to residues (315-329) of the V3 hypervariable loop of HIV-1 BH10 (Neurath et al (1990), Molec. Immunol 27, 539-549).
as §1, with “FIG. 10” for “FIG. 8”, “of meso-tetra (4-carboxyphenyl)porphine” for “of chlorine6”, “against a synthetic peptide corresponding to” for “against”, “HIV-1 BH10.” for “HIV-1 BH10”
as §1, with “FIG. 11” for “FIG. 8”, “of uroporphyrin III” for “of chlorine6”, “against a synthetic peptide corresponding to” for “against”, “et al,” for “et al”, “Molec. lmmunol.,” for “Molec. Immunol.,”, “27, 539-549)” for “27, 539-549).”
Monoclonal antibodies (McAbs) recognizing the V3 hypervariable loop of HIV-1 BH 10 (McAb 9305 from DuPont, Wilmington, Del.) and an antiserum from a chimpanzee immunized with a mixture of V3 hypervariable loop peptides from 21 distinct HIV1 isolates (Girard, M., Kieny, M-P., Pinter, A., Barre-Sinoussi, F., Nara, P., Kolbe, H., Kusumi, K., Chaput, A., Reinhart, T., Muchmore, E, Ronco, J., Kaczorek, M., Gomard, E, Gluckman, JC., Fultz, P. N. (1991), "Immunization of Chimpanzees Confers Protection Against Challenge with Human Immunodeficiency Virus", Proc. Natl. Acad. Sci. USA, 88, 542-546) were also used for studies on the inhibitory affect of ATA on the reaction between these antibodies and gp120, using ELISA tests. These tests were carried out similarly as RIA, except that sodium merthiolate (1 mg/ml) was added to the buffers instead of NaN3, and goat antimouse IgG antibodies (Boehringer Mannheim Biochemicals, Indianapolis, Ind.) and goat anti-human IgG antibodies (Sigma, St. Louis, Mo.), respectively, each linked to horseradish peroxidase were used as second antibodies at final dilutions of 1:1,000 in phosphate-buffered saline (PBS) containing 10% goat serum and 0.1% Tween 20. […]

Sequence of gp120 of the same virus subtype expressed in E. coli (P03378 32-509): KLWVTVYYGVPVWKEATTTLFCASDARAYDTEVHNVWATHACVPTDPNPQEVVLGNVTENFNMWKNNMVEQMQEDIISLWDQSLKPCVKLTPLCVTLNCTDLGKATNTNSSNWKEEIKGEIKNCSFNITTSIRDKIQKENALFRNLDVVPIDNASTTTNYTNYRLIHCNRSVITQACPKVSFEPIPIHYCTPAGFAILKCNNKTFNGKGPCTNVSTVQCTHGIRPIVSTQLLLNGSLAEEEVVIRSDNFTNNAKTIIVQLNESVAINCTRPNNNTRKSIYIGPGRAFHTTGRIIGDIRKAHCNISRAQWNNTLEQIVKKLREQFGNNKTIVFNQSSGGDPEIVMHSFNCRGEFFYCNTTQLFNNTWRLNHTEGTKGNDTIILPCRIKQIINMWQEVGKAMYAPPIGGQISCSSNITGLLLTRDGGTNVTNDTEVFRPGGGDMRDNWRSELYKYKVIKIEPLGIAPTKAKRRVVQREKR

SMILES | IC100 [1] | interaction of ATA with gp120 [2] | inhibitory activity on the interaction between the V3 hypervariable loop of HIV-1-IIIB and antisera [3]
O=C(O)C1=CC(=C(c2ccc(O)c(C(=O)O)c2)c2ccc(O)c(C(=O)O)c2)C=CC1=O [substance #122, aurintricarboxylic acid] | ~1000 µg/mL | not with gp120 of the same virus subtype expressed in E. coli | 
C=Cc1c(C)c2cc3nc(c(CC(=O)O)c4[nH]c(cc5nc(cc1[nH]2)C(C)=C5CC)c(C)c4C(=O)O)[C@@H](CCC(=O)O)[C@@H]3C [substance #149, chlorine e6] |  |  | considerable inhibitory activity
